Source: US20240239787A1, “COMPOUNDS FOR USE IN THE TREATMENT OF CANCER” (Nanyang Technological University, priority 2021, published 2024)

Experiments:
HIF-1α [1] = test: HIF-1α level in hypoxic Hela cells (immunofluorescence imaging, Western blot); type: cell-based, human
Procedure: (§1) HeLa, Hek293T, MDA-MB-231, 4T1 or B16F10 cells (1.5×10^6 cells/mL) were treated with J266 (10 μM) for 6 h before incubating with JQ1-CBT at the indicated concentrations and time. This entire incubation was performed in normoxia condition. For NTR-moiety caged JW4, the cells were treated with JW4 (10 μM) 6 h prior to the addition of JQ1-CBT for a subsequent 12 h, and was performed entirely under hypoxic condition. Comparison of the downstream effect between the controls and drug-treated cells were completely executed in hypoxic condition. To work up, the cells were washed with cold PBS (pH 7.4) twice, and lysed with RIPA buffer supplemented with protease inhibitor cocktail and phosphatase inhibitor cocktail for 10 min at 4° C. Then, the lysed cells were collected and centrifuged at 13,500 rpm for 20 min at 4° C. The supernatant was collected and the protein concentration was analyzed by NanoDrop™ 2000/2000c Spectrophotometers. The lysate volumes were fine-tuned and loaded onto a Mini-PROTEAN® TGX™ 4-20% Precast Gel and was separated by SDS-PAGE. Then, the gel was transferred onto a PVDF membrane (100 V, 90 min, 4° C.), washed with TBS-T twice, and blocked with 1% BSA for 1 h at r.t. Next, the membrane was incubated with primary antibody overnight at 4° C., washed thrice with TBS-T, followed by incubation with goat anti-rabbit IgG (H+L) Secondary Antibody, HRP for 1 h. The membrane was supplemented with Radiance Q chemiluminescent ECL substrate and visualized using Amersham™ ImageQuant™ 800 biomolecular imager. B-Tubulin was used as the internal control.
Hela cells were plated at a density of 8×10^4 cells/mL in each well of the eight-well ibidi dishes before experiment. To sustain the hypoxia-induced factor throughout the drug treatment process, drug incubation was performed entirely in hypoxic chamber. […] The fluorescence of the alleviated HIF-1α expression upon drug treatment was visualized with Carl Zeiss LSM 800 microscopes (Hoechst 33258: Ex=405 nm, Em=460/50 nm; Alexa Fluor 488: Ex=488 nm, Em=515/30 nm; Alexa Fluor 594: Ex=561 nm, Em=617/20 nm).

CA9 = CA9 level in hypoxic Hela cells (Western blot); type: cell-based, human
Procedure: as §1, with “The membrane was supplemented with Radiance Q chemiluminescent ECL substrate and visualized using Amersham™ ImageQuant™ 800 biomolecular imager. B-Tubulin was used as the internal control.” left out

zebrafish larvae = test: Vascularization of vhl mutant and wide type zebrafish larvae (confocal imaging); type: in vivo; conditions: vhl^hu2117 crosses, 10 μM; non-treatment approximately one quarter
Procedure: Vasculature zebrafishes were obtained from natural crosses of the AB wild-type strain or vhl^+/hu2117 carriers on the fli1a:egfp^y1 transgenic background (which fluorescently marks the vasculature). JW4 and JQ1-CBT were dissolved in DMSO and the mixture was applied to embryos at equimolar concentration of 10 μM, with J252 (10 μM) and JQ1 (10 μM) used for the control experiments. […] The vascular plexus was imaged on a Zeiss LSM800 confocal microscope. Green: blood vessel tracker, .ex: 488 nm, .em: 520/30 nm; red: . ex: 564 nm, .em: 610/30 nm.

BRD4 = target: T1, BRD4 (Mus musculus, UniProt Q9ESU6); test: BRD4 level in B16F10 tumour lysates of mice (Western blot); type: in vivo; conditions: intratumoral 5 mg/kg every 4 h up to 8 h
T1 construct: from tissue; host or cells: B16F10 tumour in C57BL/6J mice, tumour lysate
Description: We further investigated the feasibility of tumour microenvironment-activatable epigenetic BRD4 protein degradation and further validated the potential anti-tumour efficacy of ENCTAC in a C57BL/6J mice model. Typically, we implanted B16F10 mouse melanoma cell line into the right flank of living mice and the solid tumour was monitored to grow until palpable size before undergoing targeted protein disruption and therapeutic studies (FIG. 24a). The living mice bearing tumours were first subject to NTR-Cy7, a reported NTR enzyme responsive probe molecule (Li, Y. et al., J. Am. Chem. Soc. 2015, 137, 6407-[…]), followed by animal imaging scanning.
(§2) B16F10 cells at a density of 2×10^6 cells were injected subcutaneously into the right flank of six- to eight-week-old mice. Once the tumours became palpable, intratumoral injection of the buffer solution as vehicle, JQ1, and JW4 and JQ1-CBT at dosage of 5 mg/kg were performed for every 4 h up to 8 h. The mice were sacrificed and protein extraction were carried out. The protein levels in lysis samples were analysed by western blot by following the protocol in Example 12. Histology and immunofluorescence staining were performed by following the protocol in Example 13. […] Images were captured using the EVOS M5000 imaging system (Thermo Fischer Scientific, Waltham, MA, USA) and quantified using ImageJ.

HIF-1α [2] = test: HIF-1α level in B16F10 tumour lysates of mice (Western blot); type: in vivo, mouse; conditions: intratumoral 5 mg/kg every 4 h up to 8 h
Procedure: as §2, with “13. Specifically, the resected tumours were fixed in 4% paraformaldehyde for 48 h, washed with PBS, and gradually transferred to 15% sucrose, followed by 30% sucrose before being embedded in O.C.T. compound. Five-micrometre cryosections of the tumour samples were dehydrated and blocked with a blocking buffer containing 2% BSA, 1% Tween 20, 3% Triton X, and horse serum for an hour before being incubated with primary antibodies, followed by a washing step and then incubation with secondary antibodies. The primary antibodies used were Ki67 and CD31.” for “13.”

c-Myc = c-Myc level in B16F10 tumour lysates of mice (Western blot); type: in vivo, mouse; conditions: intratumoral 5 mg/kg every 4 h up to 8 h
Procedure: as §2, with “13. Specifically, the resected tumours were fixed in 4% paraformaldehyde for 48 h, washed with PBS, and gradually transferred to 15% sucrose, followed by 30% sucrose before being embedded in O.C.T. compound. Five-micrometre cryosections of the tumour samples were dehydrated and blocked with a blocking buffer containing 2% BSA, 1% Tween 20, 3% Triton X, and horse serum for an hour before being incubated with primary antibodies, followed by a washing step and then incubation with secondary antibodies. The primary antibodies used were Ki67 and CD31.” for “13.”

B16F10 mouse melanoma = test: Antitumour efficacy in B16F10 tumour bearing C57BL/6J mice; type: in vivo; conditions: daily treatment, 5 days, vs vehicle

In the case of `Cc1sc2c(c1C)C(c1ccc(Cl)cc1)=N[C@@H](CC(=O)OC(C)(C)C)c1nnc(C)n1-2` [JQ1], the HIF-1α protein level (HIF-1α [1]) is reported as “did not alter”, the CA9 amount (CA9) is reported as “partially downgrade” and the vascularized larvae (zebrafish larvae) is reported as 21.3%. For the same molecule, the “BRD4 protein level in tumour” value (BRD4) was “trivial effect”, the “HIF-1α protein level in tumour” value (HIF-1α [2]) was “trivial effect” and the “c-Myc expression in tumour” value (c-Myc) was “downgrade c-Myc expression”. For the same molecule, the “tumour progression (serial volumetric measurement)” value (B16F10 mouse melanoma) was “reduced tumour growth”.
